Data reported in patent publication US20070066801A1 (priority 2003, published 2007).

Test system: mutant F. novicida knock-outs
Assay type: binding, Francisella novicida

TSITPWFFLSRP [phage 4-4-2]
expected binding of phage to knock-out mutants inactivated for the cell surface marker: absence of specific binding
